Reference: ChEMBL document CHEMBL5390304, “Phenyl-quinoline-xxo-butyric Acid Inhibitors of Histone Lysine Demethylase for the Treatment of Cancer” (ACS Med Chem Lett, 2023)

Key:
[1] = biological target: Lysine-specific demethylase 5B (Homo sapiens, UniProt Q9UGL1); experiment: Inhibition of human recombinant KDM5B assessed as decarboxylation of [1-14C] alphaKG by measuring 14CO2 release using H3K4me3 as substrate incubated for 1 hr
[2] = biological target: T1, Lysine-specific demethylase 4A (Homo sapiens, UniProt O75164); experiment: Inhibition of human recombinant KDM4A assessed as decarboxylation of [1-14C] alphaKG at pH 7.4 using H3K9me3 as substrates incubated for 1 hr
T1 sequence (O75164 whole entry): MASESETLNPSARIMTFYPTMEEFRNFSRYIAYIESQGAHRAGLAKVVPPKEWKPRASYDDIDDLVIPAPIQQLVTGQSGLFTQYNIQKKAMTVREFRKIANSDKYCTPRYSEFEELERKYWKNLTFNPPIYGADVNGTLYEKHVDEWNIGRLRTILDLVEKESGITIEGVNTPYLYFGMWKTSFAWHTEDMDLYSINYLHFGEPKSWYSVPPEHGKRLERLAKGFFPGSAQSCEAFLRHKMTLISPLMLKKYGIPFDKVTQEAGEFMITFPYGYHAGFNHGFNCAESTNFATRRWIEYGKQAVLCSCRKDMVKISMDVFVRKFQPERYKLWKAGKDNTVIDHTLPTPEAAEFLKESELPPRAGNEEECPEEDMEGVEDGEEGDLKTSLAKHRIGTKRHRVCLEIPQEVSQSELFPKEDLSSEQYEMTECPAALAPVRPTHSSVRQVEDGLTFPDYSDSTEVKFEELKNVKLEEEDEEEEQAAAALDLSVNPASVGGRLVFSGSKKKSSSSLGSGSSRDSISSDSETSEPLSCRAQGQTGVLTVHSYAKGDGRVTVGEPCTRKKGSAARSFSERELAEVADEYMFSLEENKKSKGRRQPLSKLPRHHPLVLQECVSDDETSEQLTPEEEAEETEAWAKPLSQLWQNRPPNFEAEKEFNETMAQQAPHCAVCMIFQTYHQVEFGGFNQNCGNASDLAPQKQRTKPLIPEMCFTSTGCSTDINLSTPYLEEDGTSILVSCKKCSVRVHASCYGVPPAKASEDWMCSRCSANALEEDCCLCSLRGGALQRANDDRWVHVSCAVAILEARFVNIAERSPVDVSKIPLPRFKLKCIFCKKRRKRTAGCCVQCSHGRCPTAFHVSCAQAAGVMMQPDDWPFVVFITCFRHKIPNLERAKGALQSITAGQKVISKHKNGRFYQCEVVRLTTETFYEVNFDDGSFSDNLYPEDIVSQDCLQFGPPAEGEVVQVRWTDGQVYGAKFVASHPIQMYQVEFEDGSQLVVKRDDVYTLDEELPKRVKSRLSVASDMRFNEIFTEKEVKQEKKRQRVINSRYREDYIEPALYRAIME

Sequence of Lysine-specific demethylase 5B (Q9UGL1 whole entry): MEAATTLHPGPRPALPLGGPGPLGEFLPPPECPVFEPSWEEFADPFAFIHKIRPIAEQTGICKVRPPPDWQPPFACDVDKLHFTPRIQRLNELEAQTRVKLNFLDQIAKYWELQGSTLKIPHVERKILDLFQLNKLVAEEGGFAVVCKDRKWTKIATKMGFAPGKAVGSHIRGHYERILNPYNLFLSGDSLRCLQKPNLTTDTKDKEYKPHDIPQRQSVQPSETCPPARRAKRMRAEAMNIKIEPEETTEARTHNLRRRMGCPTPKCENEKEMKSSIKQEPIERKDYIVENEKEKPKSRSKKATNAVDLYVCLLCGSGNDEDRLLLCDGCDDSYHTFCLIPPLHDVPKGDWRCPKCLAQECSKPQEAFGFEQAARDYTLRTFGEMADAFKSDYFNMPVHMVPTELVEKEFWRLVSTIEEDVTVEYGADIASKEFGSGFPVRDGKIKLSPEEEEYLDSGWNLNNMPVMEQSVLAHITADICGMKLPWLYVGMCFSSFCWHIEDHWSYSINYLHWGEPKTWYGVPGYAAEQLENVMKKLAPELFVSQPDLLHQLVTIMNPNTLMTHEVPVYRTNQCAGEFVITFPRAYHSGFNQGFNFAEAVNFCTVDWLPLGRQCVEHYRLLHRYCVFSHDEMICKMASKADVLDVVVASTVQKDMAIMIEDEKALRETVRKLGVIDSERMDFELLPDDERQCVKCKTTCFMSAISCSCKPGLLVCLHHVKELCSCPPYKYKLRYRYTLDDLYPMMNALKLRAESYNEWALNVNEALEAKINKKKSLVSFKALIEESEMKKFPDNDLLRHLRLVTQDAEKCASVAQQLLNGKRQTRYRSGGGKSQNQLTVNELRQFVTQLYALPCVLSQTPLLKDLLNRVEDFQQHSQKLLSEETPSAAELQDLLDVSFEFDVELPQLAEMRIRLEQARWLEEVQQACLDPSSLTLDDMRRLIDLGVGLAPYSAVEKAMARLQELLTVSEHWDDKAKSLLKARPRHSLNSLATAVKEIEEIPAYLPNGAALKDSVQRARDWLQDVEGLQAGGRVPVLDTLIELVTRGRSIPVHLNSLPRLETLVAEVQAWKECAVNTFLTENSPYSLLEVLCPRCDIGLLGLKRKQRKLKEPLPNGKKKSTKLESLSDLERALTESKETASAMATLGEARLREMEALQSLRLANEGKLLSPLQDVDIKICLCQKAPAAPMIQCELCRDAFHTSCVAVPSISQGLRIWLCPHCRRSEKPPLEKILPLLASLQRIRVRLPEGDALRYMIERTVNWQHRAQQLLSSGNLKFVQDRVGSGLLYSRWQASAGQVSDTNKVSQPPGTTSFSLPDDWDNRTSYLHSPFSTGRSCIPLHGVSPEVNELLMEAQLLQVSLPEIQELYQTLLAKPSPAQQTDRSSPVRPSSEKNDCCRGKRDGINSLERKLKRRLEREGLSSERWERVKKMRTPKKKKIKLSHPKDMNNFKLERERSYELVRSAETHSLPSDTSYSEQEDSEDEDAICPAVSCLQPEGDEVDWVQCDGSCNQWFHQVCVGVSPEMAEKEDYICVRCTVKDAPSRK

Row | IC50 [1] | IC50 [2] | SMILES
1 | 230 nM | 22000 nM | Cc1cccc(-c2ccc3c(C#N)c(O)c(C(=O)CCC(=O)O)nc3c2)c1
2 | 240 nM | > 40000 nM | N#Cc1c(O)c(C(=O)CCC(=O)O)nc2cc(Cc3ccccc3)ccc12
3 | 370 nM | > 40000 nM | Cc1cc(C)cc(-c2ccc3c(C#N)c(O)c(C(=O)CCC(=O)O)nc3c2)c1
4 | 130 nM | 40000 nM | N#Cc1c(O)c(C(=O)CCC(=O)O)nc2ccccc12
5 | 970 nM | > 40000 nM | N#Cc1c(O)c(C(=O)CCC(=O)O)nc2ccc(Cc3ccccc3)cc12
6 | 310 nM | > 40000 nM | N#Cc1c(O)c(C(=O)CCC(=O)O)nc2ccc(-c3ccccc3)cc12
7 | 150 nM | > 40000 nM | N#Cc1c(O)c(C(=O)CCC(=O)O)nc2cc(Sc3ccccc3)ccc12
8 | 90 nM | 3900 nM | N#Cc1c(O)c(C(=O)CCC(=O)O)nc2cc(-c3ccccc3)ccc12
9 | 130 nM | 7900 nM | N#Cc1ccc(-c2cccc3c(C#N)c(O)c(C(=O)CCC(=O)O)nc23)cc1
10 | > 40000 nM | > 40000 nM | O=C(O)CCC(=O)c1nc2cc(-c3ccccc3)ccc2cc1O
11 | 220 nM | > 40000 nM | COc1ccc(-c2ccc3c(C#N)c(O)c(C(=O)CCC(=O)O)nc3c2)cc1
